Data on three compounds can be found in publication PMC3079577 (Nature, 2010).

Molecules are shown by their SMILES.

Assay [1] concerns the target LeuT^K (Lys 288 Ala LeuT) (Aquifex aeolicus, UniProt O67854, K288A).
The target of assay [2] is T1, wild-type LeuT (Aquifex aeolicus, UniProt O67854). The experiment in a line: Equilibrium dialysis, [3H]Leu binding to wild-type LeuT. The conditions noted are these: single-site fit, 23 °C, 6 h, listed as [^3H]Leu.
The target of assay [3] is T2, Tyr 108 Phe–LeuT^K (Aquifex aeolicus, UniProt O67854, K288A/Y108F). The experiment in a line: Equilibrium dialysis, [3H]Leu binding to Tyr 108 Phe mutant. The conditions noted are these: single-site fit, 23 °C, 6 h, listed as [^3H]Leu.
Assay [4] concerns the target LeuT Leu 400 Cys mutant (Aquifex aeolicus, UniProt O67854, L400C). In words: Scintillation proximity assay, [3H]Leu binding to Leu 400 Cys mutant. The conditions noted are these: SPA, 400 nM protein, Fig 2b; listed as [^3H]Leu.
Assay [5] deals with T1, wild-type LeuT. The experiment in a line: Scintillation proximity assay, [3H]Leu binding to wild-type LeuT. To be noted: SPA.
Assay [6] addresses T2, Tyr 108 Phe–LeuT^K. The experiment in a line: Isothermal titration calorimetry, Leu binding to Tyr 108 Phe mutant. The conditions noted are these: ITC, 25 °C, pH 7.0.
The target in assay [7] is T1, wild-type LeuT. In words: Isothermal titration calorimetry, Leu binding to wild-type LeuT. The conditions noted are these: ITC, 25 °C, pH 7.0.
In assay [8] the target is LeuT Leu 400 Ala mutant (Aquifex aeolicus, UniProt O67854, L400A). In words: Scintillation proximity assay, [3H]Leu binding to Leu 400 Ala mutant. To be noted: SPA, 400 nM protein, Fig 2b; listed as [^3H]Leu.
Assay [9] has as its system LeuT. To be noted: cited from earlier work.
Where [10] appears, read: two-site, ordered-binding model fit, parameters not well fitted.

Consider `C[C@H](N)C(=O)O` [Ala, alanine], for which the Km in [1] (read-out: Km (Michaelis constant), pH 5, 200 mM inward Na+ gradient, 27 °C, no valinomycin) is 0.79 ± 0.06 µM. In assay [1] (steady-state data fitted to the Hill equation), the “Hill slope nH” value came to 0.96±0.03. The Vmax in assay [1] (two-site, ordered-binding model fit) is given as 10,965±308 pmol min^−1 mg^−1. For the same compound, in assay [1] (setting [10]), the “apparent dissociation constant KS” value is 6.8 ± 22 nM and the “dissociation coefficient α” value was 114±360.

On to `CC(C)C[C@H](N)C(=O)O` [Leu, L-leucine], for which the Stoichiometry is given as 0.73±0.03 mol/mol LeuT in assay [2]; 0.72±0.02 mol/mol LeuT in assay [3]; “about 0.8 mol/mol LeuT” in assay [4]; “about 0.8 mol/mol LeuT” in [5] (400 nM LeuT (~20 Kd), 25–1,200 nM [3H]Leu, Fig 2b); “about 0.8 mol/mol LeuT” in [8]. Further, the ΔH of binding in assay [6] is -1.92 ± 0.03 kcal/mol; in assay [7], -3.93 ± 0.02 kcal/mol. Further, the “Stoichiometry N” value in assay [6] (single-site model) worked out at 0.79±0.01 mol/mol LeuT. For the same compound, in [7], the “−TΔS of binding” value was -6.01 ± 0.13 kcal/mol. In addition, in assay [7] (single-site model), the “Stoichiometry N (substrate-to-LeuT)” value is listed as 0.70±0.01 mol/mol LeuT.

Turning to `CN(C)CCCN1c2ccccc2CCc2ccc(Cl)cc21` [clomipramine], in assay [9], the “Mode of inhibition of LeuT transport” value was “non-competitive inhibitor”. In addition, in assay [5] (10 nM LeuT, 1 mM clomipramine), the “Effect of clomipramine on binding of Leu to wild-type LeuT” value is “no change”.
